For orientation: IC50 means the concentration that gives 50% inhibition.

Starred links: 1 amine or outer side, 2 acyl side, 3 side chain; linkers in the order of their positions; H or OH if unused. Positions of bridges follow the written chain, without caps; N, C: chain ends. Non-standard residues stand in square brackets, D forms with d. Residues, ends and D or L forms follow the SMILES beside them. *: point of attachment. hPhe(3,5-F2-4-CF3) = N[C@@H](CCc1cc(F)c(C(F)(F)F)c(F)c1)C(=O)O; hPhe(3-Cl-4-CF3) = N[C@@H](CCc1ccc(C(F)(F)F)c(Cl)c1)C(=O)O; hPhe(4-CF3) = N[C@@H](CCc1ccc(C(F)(F)F)cc1)C(=O)O; NMePhe(4-Cl) = CN[C@@H](Cc1ccc(Cl)cc1)C(=O)O; NMePhe(4-Me) = CN[C@@H](Cc1ccc(C)cc1)C(=O)O; NMePhe(2-Cl) = CN[C@@H](Cc1ccccc1Cl)C(=O)O; NMePhe(3-I) = CN[C@@H](Cc1cccc(I)c1)C(=O)O; NMePhe(4-I) = CN[C@@H](Cc1ccc(I)cc1)C(=O)O; NMedβ3hAla = C[C@H](CC(=O)[*:2])N(C)[*:1]; NMeGly(cPent) = CN[C@H](C(=O)O)C1CCCC1; Pro(4,4-F2) = O=C(O)[C@@H]1CC(F)(F)CN1; dαMeGly(allyl) = C=CC[C@@](C)(N)C(=O)O; NMe3Pal = CN[C@@H](Cc1cccnc1)C(=O)O; NMeCha = CN[C@@H](CC1CCCCC1)C(=O)O; NMeChg = CN[C@H](C(=O)O)C1CCCCC1; NMeF = CN[C@@H](Cc1ccccc1)C(=O)O; NMeI = CC[C@H](C)[C@H](NC)C(=O)O; NMeT = CN[C@H](C(=O)O)[C@@H](C)O; N(CH2CH2)2CF2 = FC1(F)CCN(*)CC1; NMeD = CN[C@@H](CC(=O)O)C(=O)O; NMeL = CN[C@@H](CC(C)C)C(=O)O; Cba = N[C@@H](CC1CCC1)C(=O)O; NMeV = CN[C@H](C(=O)O)C(C)C; d(β3hA) = C[C@@H](N)CC(=O)O; hSer = N[C@@H](CCO)C(=O)O; NMeA = CN[C@@H](C)C(=O)O; NMeAib = CNC(C)(C)C(=O)O; Piperidide = C1CCN(*)CC1; Pyrrolidide = C1CCN(*)C1; dNMeA = CN[C@H](C)C(=O)O; Ac5c = NC1(C(=O)O)CCCC1; Aze = O=C(O)[C@@H]1CCN1; Ac4c = NC1(C(=O)O)CCC1; NPrGly = CCCNCC(=O)O; Sar = CNCC(=O)O; OAll = C=CCO*

For this assay, the target named is T1, Kras and SOS1 (biotin-tagged human Kras loaded with GDP, His-tagged human SOS1) (Homo sapiens, UniProt P01116, G12D).
T1 construct: made in house; host or cells: E. coli (stated for Kras only)
T1 sequence (P01116 1-188 isoform P01116-2 G12D): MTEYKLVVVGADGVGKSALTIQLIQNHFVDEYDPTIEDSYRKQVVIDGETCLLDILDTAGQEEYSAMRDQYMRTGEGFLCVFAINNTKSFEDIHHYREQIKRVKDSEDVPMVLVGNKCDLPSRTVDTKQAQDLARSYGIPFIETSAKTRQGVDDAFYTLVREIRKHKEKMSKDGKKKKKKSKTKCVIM
Nature of the assay: Protein-protein interaction inhibition between Kras and SOS1 (KrasGl2D-SOS PPI) using AlphaScreen. The class given is binding. To be noted: AlphaScreen; biotin-tagged human Kras loaded with GDP, His-tagged human SOS1; read-out: KRAS G12D-SOS PPI IC50. The method, boiled down: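 Donor beads (nickel) hold His-SOS1; acceptor beads (streptavidin) hold biotin-Kras bound to GDP. Signal measured at 520-620 nm following 680 nm excitation.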
A general note: Alpha assays give light when donor and acceptor beads are brought close together.
In the case of `CC[C@H](C)[C@@H]1NC(=O)[C@H](C)N(C)C(=O)C[C@@H](C(=O)N(C)C)N(C)C(=O)[C@H]([C@@H](C)CC)N(C)C(=O)C2(CCCC2)NC(=O)[C@H](Cc2ccccc2Cl)N(C)C(=O)[C@H](CCc2ccc(C(F)(F)F)c(Cl)c2)NC(=O)CN(C)C(=O)[C@H](Cc2ccc(C)cc2)N(C)C(=O)[C@@H]2CCN2C(=O)[C@H](C)N(C)C1=O` [Compound 2011] ([NMeA]I[NMeA][Aze][NMePhe(4-Me)][Sar][hPhe(3-Cl-4-CF3)][NMePhe(2-Cl)][Ac5c][NMeI][NMeD]-NMe2; lactam N-11), the IC50 was 17 nM. As for `COCC[C@@H]1NC(=O)[C@H](CC(C)C)N(C)C(=O)C[C@@H](C(=O)N2CCCCC2)N(C)C(=O)[C@H](C2CCCCC2)N(C)C(=O)C2(CCCC2)NC(=O)[C@@H]2CCCN2C(=O)[C@H](CCc2ccc(C(F)(F)F)c(Cl)c2)NC(=O)CN(C)C(=O)[C@H](CC2CCCCC2)N(C)C(=O)CN(C)C(=O)CN(C)C1=O` [Compound 941] ([NMeL][hSer](Me)[Sar][Sar][NMeCha][Sar][hPhe(3-Cl-4-CF3)]P[Ac5c][NMeChg][NMeD]-Piperidide; lactam N-11), the IC50 was found to be 3.3 nM. For the compound `CC[C@H](C)[C@@H]1NC(=O)[C@H](CC(C)C)N(C)C(=O)C[C@@H](C(=O)N2CCCCC2)N(C)C(=O)[C@H](C2CCCCC2)N(C)C(=O)C2(CCCC2)NC(=O)[C@@H]2CCCN2C(=O)[C@H](CCc2ccc(C(F)(F)F)c(Cl)c2)NC(=O)CN(C)C(=O)[C@H]([C@@H](C)O)N(C)C(=O)CN(C)C(=O)CN(C)C1=O` [Compound 427] ([NMeL]I[Sar][Sar][NMeT][Sar][hPhe(3-Cl-4-CF3)]P[Ac5c][NMeChg][NMeD]-Piperidide; lactam N-11), the IC50 came to 0.71 nM. For `CC[C@H](C)[C@@H]1NC(=O)[C@H](CC(C)C)N(C)C(=O)C[C@@H](C)N(C)C(=O)[C@H](C2CCCCC2)N(C)C(=O)C2(CCC2)NC(=O)[C@@H]2CC(F)(F)CN2C(=O)[C@H](CCc2cc(F)c(C(F)(F)F)c(F)c2)NC(=O)CN(C)C(=O)[C@H](CC2CCCCC2)N(C)C(=O)CN(C)C(=O)CN(C)C1=O` [Compound 738] (cyclo([Ac4c][NMeChg][NMedβ3hAla][NMeL]I[Sar][Sar][NMeCha][Sar][hPhe(3,5-F2-4-CF3)][Pro(4,4-F2)])), the IC50 was determined as 15 nM. On to `CC[C@H](C)[C@@H]1NC(=O)[C@H](C)N(C)C(=O)C[C@@H](C)N(C)C(=O)[C@H]([C@@H](C)CC)N(C)C(=O)C(C)(C)N(C)C(=O)[C@@H]2CCCN2C(=O)[C@H](CCc2ccc(C(F)(F)F)c(Cl)c2)NC(=O)CN(C)C(=O)[C@H](CC2CCCCC2)N(C)C(=O)[C@@H]2CCN2C(=O)[C@H](C)N(C)C1=O` [Compound 2153] (cyclo([Aze][NMeCha][Sar][hPhe(3-Cl-4-CF3)]P[NMeAib][NMeI][NMedβ3hAla][NMeA]I[NMeA])), for which the IC50 came out at 6.9 nM. For the compound `C=CC[C@@]1(C)NC(=O)[C@@H]2CCCN2C(=O)[C@H](CCc2ccc(C(F)(F)F)c(Cl)c2)NC(=O)CN(C)C(=O)[C@H](CC2CCCCC2)N(C)C(=O)CN(C)C(=O)CN(C)C(=O)[C@H]([C@@H](C)CC)NC(=O)[C@H](CC(C)C)N(C)C(=O)C[C@@H](C)NC(=O)[C@H](C(C)C)N(C)C1=O` [Compound 665] (cyclo(I[Sar][Sar][NMeCha][Sar][hPhe(3-Cl-4-CF3)]P[dαMeGly(allyl)][NMeV][d(β3hA)][NMeL])), the IC50 was 37 nM. Under `C=CCOC(=O)CC[C@@H]1NC(=O)[C@H](CCc2ccc(C(F)(F)F)cc2)NC(=O)CN(C)C(=O)[C@H](Cc2ccc(Cl)cc2)N(C)C(=O)CN(C)C(=O)CN(C)C(=O)[C@H]([C@@H](C)CC)NC(=O)[C@H](C)N(C)C(=O)C[C@@H](C(=O)N2CCCC2)NC(=O)[C@H](CC(C)C)N(C)C(=O)[C@H](Cc2ccccc2)N(C)C1=O` [Compound 306] ([NMeA]I[Sar][Sar][NMePhe(4-Cl)][Sar][hPhe(4-CF3)]E(OAll)[NMeF][NMeL]D-Pyrrolidide; lactam N-11) stands 44 nM; under `CC[C@H](C)[C@@H]1NC(=O)[C@H](CC(C)C)N(C)C(=O)C[C@@H](C(=O)N(C)C)N(C)C(=O)[C@H]([C@@H](C)CC)N(C)C(=O)C2(CCCC2)NC(=O)[C@H](Cc2cccc(I)c2)N(C)C(=O)[C@H](CCc2ccc(C(F)(F)F)c(Cl)c2)NC(=O)CN(C)C(=O)[C@H](Cc2ccc(C)cc2)N(C)C(=O)[C@@H]2CCN2C(=O)[C@H](C)N(C)C1=O` [Compound 1910] ([NMeL]I[NMeA][Aze][NMePhe(4-Me)][Sar][hPhe(3-Cl-4-CF3)][NMePhe(3-I)][Ac5c][NMeI][NMeD]-NMe2; lactam N-11), 60 nM; under `CCCN1CC(=O)N(C)[C@@H]([C@@H](C)CC)C(=O)N(C)[C@H](C(=O)N(C)C)CC(=O)N(C)[C@@H](CC(C)C)C(=O)N[C@@H]([C@@H](C)CC)C(=O)N(C)[C@@H](C)C(=O)N2CC[C@H]2C(=O)N(C)[C@@H](Cc2ccc(C)cc2)C(=O)N(C)CC(=O)N[C@@H](CCc2ccc(C(F)(F)F)c(Cl)c2)C(=O)N2CCC[C@H]2C1=O` [Compound 1131] ([NMeL]I[NMeA][Aze][NMePhe(4-Me)][Sar][hPhe(3-Cl-4-CF3)]P[NPrGly][NMeI][NMeD]-NMe2; lactam N-11), 13 nM. For the compound `CC(C)C[C@H]1C(=O)N[C@@H](CC2CCC2)C(=O)N(C)CC(=O)N(C)CC(=O)N(C)[C@@H](CC2CCCCC2)C(=O)N(C)CC(=O)N[C@@H](CCc2ccc(C(F)(F)F)c(Cl)c2)C(=O)N2CCC[C@H]2C(=O)NC2(CCCC2)C(=O)N(C)[C@@H](C(C)C)C(=O)N(C)[C@H](C(=O)N2CCCCC2)CC(=O)N1C` [Compound 451] ([NMeL][Cba][Sar][Sar][NMeCha][Sar][hPhe(3-Cl-4-CF3)]P[Ac5c][NMeV][NMeD]-Piperidide; lactam N-11), the IC50 is 10 nM. Under `CC[C@H](C)[C@@H]1NC(=O)[C@H](C)N(C)C(=O)C[C@@H](C(=O)N(C)C)N(C)C(=O)[C@H]([C@@H](C)CC)N(C)C(=O)C2(CCCC2)NC(=O)[C@H](Cc2ccc(I)cc2)N(C)C(=O)[C@H](CCc2ccc(C(F)(F)F)c(Cl)c2)NC(=O)CN(C)C(=O)[C@H](Cc2ccc(C)cc2)N(C)C(=O)[C@@H]2CCN2C(=O)[C@H](C)N(C)C1=O` [Compound 1953] ([NMeA]I[NMeA][Aze][NMePhe(4-Me)][Sar][hPhe(3-Cl-4-CF3)][NMePhe(4-I)][Ac5c][NMeI][NMeD]-NMe2; lactam N-11) stands 51 nM; under `CC[C@H](C)[C@@H]1NC(=O)[C@H](CC(C)C)N(C)C(=O)C[C@@H](C(=O)N(C)C)N(C)C(=O)[C@H](C(C)C)N(C)C(=O)C2(CCCC2)NC(=O)[C@H](CC(=O)N2CCC(F)(F)CC2)N(C)C(=O)[C@H](CCc2ccc(C(F)(F)F)c(Cl)c2)NC(=O)CN(C)C(=O)[C@H](CC2CCCCC2)N(C)C(=O)CN(C)C(=O)CN(C)C1=O` [Compound 218] ([NMeL]I[Sar][Sar][NMeCha][Sar][hPhe(3-Cl-4-CF3)][NMeD](N(CH2CH2)2CF2)[Ac5c][NMeV][NMeD]-NMe2; lactam N-11), 1.9 nM. As to `CC[C@H](C)[C@@H]1NC(=O)[C@H](C)N(C)C(=O)C[C@@H](C)NC(=O)[C@H](C2CCCC2)N(C)C(=O)C2(CCCC2)NC(=O)[C@@H]2CCCN2C(=O)[C@H](CCc2ccc(C(F)(F)F)c(Cl)c2)NC(=O)[C@@H](C)N(C)C(=O)[C@H](Cc2cccnc2)N(C)C(=O)CN(C)C(=O)CN(C)C1=O` [Compound 919] (cyclo([Ac5c][NMeGly(cPent)][d(β3hA)][NMeA]I[Sar][Sar][NMe3Pal][dNMeA][hPhe(3-Cl-4-CF3)]P)), the IC50 was 52 nM.

The record behind these values is patent publication US12371454B2, “Cyclic peptide compound having Kras inhibitory action” (priority 2019, dated 2025).
